The source of these data is patent US5077195A, “Polypeptides complementary to peptides or proteins having an amino acid sequence or nucleotide coding sequence at least partially known and methods of design therefor” (Board of Reagents, The University of Texas System, priority 1986, dated 1991).

Test [1] deals with angiotensin II receptors. The test is described as follows: Binding of [^125 I] angiotensin II to isolated hepatic receptor. The settings on record: concentration that inhibits binding of radiolabelled angiotensin II by 50%; 0.25 nM label; 60 minutes at 20° C. Set-up: species or system Rabbit.
Description: Rabbit livers were homogenized, and were centifuged in order to isolate particles sedimenting between 1,000 and 100,000 xg. Binding activity was solublized with 1% digitonin, followed by ammonium sulfate fractionation between 49 and 65% satuation followed by DEAE- cellulose chromatography at pH 7.5 using a linear gradient between 0.0 and 0.3M KCl.
The reaction is initiated by addition of the receptor and samples are incubated for 60 minutes at 20° C. The reaction is terminated with 1 ml of cold 0.5% charcoal/0.05% Dextran in 100 mM Tris-HCl, pH 7.5.
The complete system under these conditions regularly yields about 10,000 cpm of bound radioactivity.
The target in test [2] is T1, ^125 I-ACTH (Homo sapiens, UniProt P01189).
T1 construct: ACTH plates+immunized rabbit immunoglobulin
T1 sequence (P01189 138-176 limits assumed): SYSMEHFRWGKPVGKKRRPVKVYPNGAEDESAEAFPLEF
The test is described as follows: Solid-phase binding of ^125 I-ACTH to 5'-3' and 3'-5' complementary peptides. The method, then: A solid-phase binding assay was used to determine the ability of both the 5'-to-3' and the 3'-to-5'-complementary-RNA-strand peptides (see Examples 1A and 1C) to bind ^125 I-ACTH. The peptides were diluted in phosphate-buffered saline (140 mM-NaCl/3 mM-KCl/0.1% NaN3 /20 mM-phosphate buffer, pH 7.4) to 2 mg/ml, and 0.2 ml/well was placed into poly(vinyl chloride) micro-titre plates (Becton and Dickinson, Oxnard, CA, U.S.A.). After 18 h at 4° C., unbound peptide was removed by washing three times with phosphate-buffered saline containing 0.1% bovine serum albumin (Sigma Chemical Co., St. Louis, MO, U.S.A.). ^125 I-ACTH was diluted to various concentrations with phosphate-buffered saline containing 0.1% bovine serum albumin and incubated in peptide-coated wells for 60 minutes at 4° C. […] After incubation, unbound radiolabel was washed out with phosphate-buffered saline containing 0.1% bovine serum albumin, and the radioactivity of individual wells was measured by gamma-radiation counting. The amount of specifically bound radioactivity was determined by blocking ^125 I-ACTH binding with unlabelled ACTH. Additional controls included coating wells with insulin or bovine serum albumin (2 mg/ml) before the addition of the ^125 I-ACTH.

For test [3], the system named is HTCA. The experiment in a line: ELISA binding of immunoglobulins to HTCA-coated plates. The settings on record: Plates coated with HTCA. The method, then: (§1) Two peptides complementary to ACTH, described in Examples 1B and 1C as HTCA and 3'-5' HTCA, were each coupled to Keyhole Limpet Hemocyanin (KLH) with glutaraldeyde (1 mg peptide, 1 mg KLH, 30 mM glutaraldehyde for 30 minutes at room temperature followed by dialysis) to prepare antigens for rabbit immunization. Two rabbits were injected separately with 250 ug of peptide-KLH antigens weekly for four weeks. Each rabbit was bled biweekly for three weeks following the last injection. Antibodies representing the total immunoglobulin from serum of each rabbit was purified by precipitation from serum with 50% saturated ammonium sulfate at 4° C. followed by standard ion exchange chromatography on a DEAE column.
To examine the binding of each of the immunoglobulins to each of the peptides, enzyme-linked immunosorbant assays were performed. In these assays, one of the complementary peptides was coated onto polycarbonate plates in a carbonate coating buffer at pH 9.0 overnight. Unbound peptide was removed by washing three times with phosphate buffered saline (PBS)-TWEEN 20. Various amounts of immunoglobulins were added to peptide-coated wells in PBS-TWEEN 20 solution and incubated for one hour. Unbound immunoglobulin was removed by washing with PBS-TWEEN 20. To each well was added a 1:300 dilution of goat anti-rabbit IgG coupled to alkaline phosphatase enzyme. After one hour the wells were washed with PBS-TWEEN 20 to remove unbound secondary antibodies. The amount of remaining secondary antibody was determined by reacting p-nitrophenyl phosphate with the remaining aklaline phosphatase enzyme for 15 minutes, stopping the reaction with 3M NaOH, and measuring nitrophenol produced spectrophotometrically at 490 nm.

In test [4] the test system is 3'-5' HTCA. The test is described as follows: ELISA binding of immunoglobulins to 3'-5' HTCA-coated plates. The settings on record: Plates coated with 3'-5' HTCA; antibody 0.11 mg/ml. The method, then:
as §1
To examine the binding of each of the immunoglobulins to each of the peptides, enzyme-linked immunosorbant assays were performed. In these assays, one of the complementary peptides was coated onto polycarbonate plates in a carbonate coating buffer at pH 9.0 overnight. Unbound peptide was removed by washing three times with phosphate buffered saline (PBS)-TWEEN 20. […] The amount of remaining secondary antibody was determined by reacting p-nitrophenyl phosphate with the remaining aklaline phosphatase enzyme for 15 minutes, stopping the reaction with 3M NaOH, and measuring nitrophenol produced spectrophotometrically at 490 nm.
(An ELISA detects its analyte on a solid surface through an enzyme-linked reagent.)

The target of test [5] is T2, I^125 ACTH (1-39) (Homo sapiens, UniProt P01189).
T2 construct: I^125 ACTH (1-39) (New England Nuclear Boston, MA); purchased New England Nuclear (Boston, MA)
T2 sequence (P01189 138-176 limits assumed): T1 sequence (P01189 138-176 limits assumed)
The test is described as follows: ^125 I-ACTH binding to peptide-coated microtiter wells. The method, then: Utilizing techniques described in Example 1B, polyvinyl microtiter wells were coated with 3'-5' HTCA from a 1 mM solution thereof or with BSA.
The BSA and 3'-5' HTCA coated wells were washed and then treated with one of three solutions of I^125 ACTH (1-39) (New England Nuclear Boston, MA) having different concentrations. After a forty five minute incubation period the solution was removed and the microtiter wells extensively washed. The microtiter wells were separated and assayed for iodine^125content in a Beckman Gamma 5500 gamma counter. Bound ^125 I-ACTH was measured in duplicate at three concentrations in the absence and presence of excess unlabelled ACTH.
Utilizing the cRNA sequence and HTCA sequence shown in Table 8 of Example 1A, a series of peptides having a carboxy-terminal portion of the HTCA amino acid were synthesized. A pentamer (5-mer) contained the amino acid sequence: H2 N-Phe-His-Gly-Val-Arg-COOH. A decamer (10-mer) contained the amino acid sequence: H2 N-[…]COOH. A twenty membered peptide (20-mer) contained the amino acids sequence: H2 N-[…] Val-Arg-COOH. Each of thes peptides was used to coat microtiter wells and the coated wells tested for the ability to bind ^125 I-ACTH as described in Example 1C.
A 24-mer HTCA variant (R-HTCA) with reversed amino acid sequence directionality (amino-terminal and carboxy-terminal ends being reversed) was synthesized and had the following sequence: H2 N-[…] Arg-His-Leu-His-Val-Gly-COOH. The well-coating and ^125 I-ACTH binding procedures were performed as described in Example 1-C and the resultant data shown in Table 11.

Several values for one entry are separate records, joined by “and”; a condition that tells them apart may be missing. Identical values can stand only once. Where no end group is shown, it is not given here.

Turning to “Ac-KGVYIHAL-NH2 [CCA-AII (Ac, Am), Ac--LYS--GLY--VAL--TYR--ILE--HIS--ALA--LEU--Am]”, in test [1], the ID50 is 3,100 nM.

Turning to RMRYLVKATPFGHPFFAAGHFHMG [3'-5' HTCA], the “effectiveness in binding ACTH (in words)” value in test [2] was “equally effective in binding ACTH”. Further, the “Absorbance at 490 nm” value in test [3] (antibody 0.04 mg/ml) is 0.24 ± 0.08; in test [3] (antibody 0.11 mg/ml), 0.37 ± 0.09; in test [3] (antibody 0.3 mg/ml) it was 0.91 ± 0.11; in test [3] (antibody added 0.012 mg/ml), 0.08 ± 0.04; in test [4] it was 0.89 ± 0.23. In test [5], the “binding of ^125 I-ACTH to coated wells (in words)” value is “binds to coated 3'-5' HTCA”. Besides, the “Bound CPM - ^125 I-ACTH” value in test [5] (1:3 dilution ^125 I-ACTH) is 601 CPM and 590 CPM; in test [5] (1:3 dilution ^125 I-ACTH, + Excess ACTH), 287 CPM and 299 CPM; in test [5] (1:9 dilution ^125 I-ACTH, + Excess ACTH) it was 191 CPM and 183 CPM; in test [5] (conc ^125 I-ACTH), 1819 CPM and 1716 CPM; in test [5] (conc ^125 I-ACTH, + Excess ACTH), 616 CPM and 615 CPM.
